According to article PMC9025336 (Antibiotics, 2022):
In brackets after ≈: the same amount, converted by molar mass. Peptide text beside a SMILES is read from it. * marks the point of attachment. Orn(α-tetramethylguanidino) = CN(C)C(=N[C@@H](CCCN)C(=O)*)N(C)C

What was measured:
[1] = test system: E. coli BL21 (DE3) RIL ribosome extract; conditions: values published for E. coli BL21 (DE3) RIL ribosome extract; read-out: Ki, cf-Onc112; cited from earlier work
Text: Table 2 Antibacterial activities, dissociation (Kd), and inhibition constants (Ki) of ribosome binding obtained for all PrAMPs included in the current study for E. coli strains BW25113 (BW) and Rosetta DE3 pLysS (Ros). | column: Ki [µmol/L] *** / cf-Onc112

[2] = test system: E. coli BL21 (DE3) sbmA::Tn10^Cm; type: cell-based, Escherichia coli
Procedure: (§1) The minimal inhibitory concentrations (MIC) were determined at least twice in triplicate using a liquid broth microdilution assay in sterile 96-well plates and a total volume of 100 μL per well. Aqueous peptide solutions were serially 2-fold diluted in 25% MHBII or 33% TSB medium in a volume of 50 µL. An overnight culture was diluted in 25% MHBII or 33% TSB medium to 1.5 × 10^7 CFU/mL, and an aliquot of 50 μL was added to each well. The final cell count in each well was 7.5 × 10^6 CFU/mL. The plates were incubated at 37 °C for 20 ± 2 h. The turbidity of each well was measured at a wavelength of 600 nm. The MIC was defined as the lowest peptide concentration where the turbidity was identical to medium only.
E. coli strain BL21(DE3) was randomly mutagenized by Tn10 insertion using the lambda phage lysate λNK1324 carrying a chloramphenicol resistance and grown on LB agar plates in the presence of chloramphenicol (15 µg/mL) at 30 °C overnight. The resistant colonies were transferred to 25% MHBII agar plates containing Api137 (32 or 64 µg/mL) and incubated again at 37 °C overnight. Genomic DNA was isolated by a Monarch® Genomic DNA purification kit (New England Biolabs, Frankfurt am Main, Germany) from the presumed double-resistant strains, and the sequences flanking the transposon insertion were determined by arbitrary primed PCR using arbitrary primer ARB6 and Tn10 transposon-specific primer IS10-R complementary to the IS10 element of Tn10 transposon. The first round of amplification included six cycles of denaturation (95 °C, 30 s), annealing (30 °C, 30 s), and extension (72 °C, 90 s), followed by 30 cycles of denaturation (95 °C, 30 s), annealing (45°C, 30 s), and extension (72 °C, 2 min), as well as a final extension (72 °C, 6 min). The second round of amplification used arbitrary primer ARB2 and primer IS10-R. The PCR consisted of 30 cycles of denaturation (95 °C, 30 s), annealing (52 °C, 30 s), and extension (72 °C, 2 min), followed by a final extension step (72 °C, 6 min). PCR products were purified with the NucleoSpin® Gel and a PCR cleanup kit (Macherey-Nagel, Düren, Germany) and sequenced using primer IS10-R (Eurofins MWG Operon, Ebersberg, Germany), and the corresponding protein was identified in a sequence database (UniProt and NCBI, 2021).

[3] = target: BW25113 ribosome extract, ribosomal binding site of Api137; assay: Fluorescence polarization competition against cf-Api137 (Ki); design: species or system Escherichia coli; conditions: unlabeled PrAMP against cf-labeled Api137, calculated from IC50, 95% confidence interval in brackets
Procedure: (§2) E. coli BW25113 and E. coli Rosetta pLysS were cultivated in LB medium and harvested at an OD600 of ~4 by centrifugation (5000× g, 30 min, 4 °C). The cell pellets were washed by resuspension in ribosome preparation buffer (20 mmol/L Hepes-KOH, 6 mmol/L MgCl2, 30 mmol/L NH4Cl, pH 7.6, 4°C) and subsequent centrifugation (5000× g, 30 min, 4 °C). Cell pellets were suspended in ribosome preparation buffer ([…]) containing freshly added 2-mercapotethanol (4 mmol/L). Lysozyme was added to the resuspended cells and incubated on ice for 30 min. The cell suspension was disrupted six times using a FastPrep-24^TM 5G instrument (MP Biomedicals, Solon, OH, USA) with BigPrep 50 mL setting (40 s, 4.0 m/s), incubated with DNase I (5 mL/L) on ice for one hour and centrifuged (16,000× g, 30 min, 4 °C). The cell debris was removed from the supernatant by centrifugation (32,000× g, 60 min, 4 °C), and the supernatant was centrifuged again (165,000× g, 17 h, 4 °C). The pellet was resuspended in ribosome preparation buffer (0.1 mL per g cell pellet) to obtain the 70S ribosome extract and stored at −80 °C. The ribosome concentration was estimated by recording the absorbance at 260 nm (1 AU for a ribosome concentration of 28 nmol/L). The molecular weight of the 70S E. coli ribosome was assumed to be 2.3 MDa.
(§3) Ki was determined for ribosome extracts using cf-labeled and unlabeled peptides in ribosome preparation buffer. Black 384-well plates were prepared as described above. Unlabeled peptides or antibiotics (20 µL, 656 µmol/L) were added and 2-fold serially diluted in 23 wells in ribosome preparation buffer. A ribosome solution was prepared by adjusting the ribosome concentration to ~90% of the upper Kd plateau obtained for the cf-labeled peptide to be studied and added to each well (10 µL). […] The fluorescence polarization was measured on a PARADIGMTM microplate reader in the top read position (λexc = 485 nm, λem = 535 nm) in triplicate on at least two different days. […] Inhibition constants, Ki, were calculated as described by Mathias and Jung.

[4] = target: BW25113 ribosome extract, ribosomal binding site of Onc112; assay: Fluorescence polarization competition against cf-Onc112 (Ki); design: species or system Escherichia coli; conditions: unlabeled PrAMP against cf-labeled Onc112, calculated from IC50, 95% confidence interval in brackets
Procedure: as §2, §3

[5] = test system: E. coli BW25113 ΔsbmA +psbmA; type: cell-based, Escherichia coli
Procedure: as §1

[6] = test system: E. coli BW25113 ΔsbmA; type: cell-based, Escherichia coli
Procedure: as §1

[7] = E. coli Rosetta pLysS lysate, protein ~0.5 g/L; 37 °C; RP-HPLC UV 214 nm
Procedure: (§4) Peptides (7.5 µg) were mixed with lysates of E. coli Rosetta pLysS or E. coli BW25113 (protein concentration ~0.5 g/L) and incubated on an orbital shaker (37 °C, 750 rpm). After 0, 4, 8 and 24 h, aliquots were taken in duplicate or triplicate, and trichloroacetic acid was added to achieve a final concentration of 3% (v/v). Samples were incubated on ice (10 min) and centrifuged (13,000× g, 5 min). The supernatant was neutralized with aqueous sodium hydroxide (1 mol/L) and stored at −20 °C. Samples were separated on an ACQUITY arc system (Waters GmbH, Eschborn, Germany) using a Jupiter C18 column (ID: 2 mm). Elution was achieved using a linear aqueous acetonitrile gradient containing 0.1% (v/v) formic acid. The absorbance was recorded on a 2489 UV/VIS detector at 214 nm (Waters GmbH), and mass spectra were acquired online with an ion trap mass spectrometer equipped with an electrospray ionization source (ESI-IT-MS, Esquire HCT, Bruker Daltonics, Billerica, MA, USA). Peptide recoveries and the corresponding metabolites were calculated based on the peak areas (UV) of the initial peptide peak area at 0 min.

[8] = in vitro; conditions: E. coli BW25113 lysate
Procedure: as §4

[9] = 25% MHBII containing IPTG (0.1 mmol/L)
[10] = 33% TSB containing IPTG (0.1 mmol/L)

For `CC[C@H](C)[C@H](NC(=O)[C@H](Cc1ccc(O)cc1)NC(=O)[C@@H](NC(=O)[C@@H]1CCCN1C(=O)[C@H](CCCNC(=N)N)NC(=O)[C@H](CC(N)=O)NC(=O)[C@H](CC(N)=O)NC(=O)[C@H](CCCN)N=C(N(C)C)N(C)C)C(C)C)C(=O)N1CCC[C@H]1C(=O)N[C@@H](CCCNC(=N)N)C(=O)N1CCC[C@H]1C(=O)N[C@@H](CCCNC(=N)N)C(=O)N1CCC[C@H]1C(=O)N1CCC[C@H]1C(=O)N[C@@H](Cc1c[nH]cn1)C(=O)N1CCC[C@H]1C(=O)N[C@@H](CCCNC(=N)N)C(=O)N[C@@H](CC(C)C)C(N)=O` [Api88] ({Orn(α-tetramethylguanidino)}-NNRPVYIPRPRPPHPRL-NH2), the Ki [1] is given as 0.11 µM.
For `CC[C@H](C)[C@H](NC(=O)[C@H](Cc1ccc(O)cc1)NC(=O)[C@@H](NC(=O)[C@@H]1CCCN1C(=O)[C@H](CCCNC(=N)N)NC(=O)[C@H](CC(N)=O)NC(=O)[C@H](CC(N)=O)NC(=O)[C@H](CCCN)N=C(N(C)C)N(C)C)C(C)C)C(=O)N1CCC[C@H]1C(=O)N[C@@H](CCCNC(=N)N)C(=O)N1CCC[C@H]1C(=O)N[C@@H](CCCNC(=N)N)C(=O)N1CCC[C@H]1C(=O)N1CCC[C@H]1C(=O)N[C@@H](Cc1c[nH]cn1)C(=O)N1CCC[C@H]1C(=O)N[C@@H](CCCNC(=N)N)C(=O)N[C@@H](CC(C)C)C(=O)O` [Api137] ({Orn(α-tetramethylguanidino)}-NNRPVYIPRPRPPHPRL-OH), the “MIC, 25% MHBII” value ([2]; BL21 (DE3) sbmA::Tn10^Cm, 25% MHBII containing IPTG (0.1 mmol/L)) was 16 µg/mL (≈ 6.98 µM), the “MIC, 33% TSB” value ([2]; BL21 (DE3) sbmA::Tn10^Cm, 33% TSB containing IPTG (0.1 mmol/L)) was 16 µg/mL (≈ 6.98 µM) and the Ki [3] was 0.002 µM. The Ki [4] was 0.219 µM, the “MIC, 25% MHBII” value [5, 9] was 4 µg/mL (≈ 1.75 µM) and the “MIC, 33% TSB” value [5, 10] was 8 µg/mL (≈ 3.49 µM). For the same compound, the “MIC, 25% MHBII” value [6, 9] was 8 µg/mL (≈ 3.49 µM) and the “MIC, 33% TSB” value [6, 10] was 64 µg/mL (≈ 27.9 µM).
In the case of `CC[C@H](C)[C@H](NC(=O)[C@@H]1CCCN1C(=O)[C@H](CCCNC(=N)N)NC(=O)[C@H](CC(N)=O)NC(=O)[C@H](CC(N)=O)NC(=O)CN)C(=O)N[C@@H](Cc1ccc(O)cc1)C(=O)N[C@H](C(=O)N1CCC[C@H]1C(=O)N[C@@H](CCCNC(=N)N)C(=O)N1CCC[C@H]1C(=O)N[C@@H](CCCNC(=N)N)C(=O)N1CCC[C@H]1C(=O)N1CCC[C@H]1C(=O)N[C@@H](Cc1c[nH]cn1)C(=O)N1CCC[C@H]1C(=O)N[C@@H](CCCNC(=N)N)C(=O)N1CCC[C@H]1C(=O)N[C@H](C(=O)N[C@@H](CCCNC(=N)N)C(=O)N[C@H](C(=O)O)C(C)C)[C@@H](C)CC)[C@@H](C)CC` [Api805] (H-GNNRPIYIPRPRPPHPRPIRV-OH; N-terminus assumed), the “MIC in the E. coli BL21 sbmA::Tn10^Cm strain” value ([2]; medium not stated (Table 3: 25% MHBII and 33% TSB)) is reported as 128 µg/mL, the Ki [3] is reported as 1.07 µM and the Ki [4] is reported as 0.489 µM. The “half-life time in lysate” value [7] was > 24 h and the half-life [8] was > 24 h.
